Like-named read-outs stand apart in the source and are kept apart here.
Legend:
[1] = biological target: T1, GV sPLA2 (Homo sapiens, UniProt P39877); conditions: cited from earlier work
T1 sequence (P39877 21-138): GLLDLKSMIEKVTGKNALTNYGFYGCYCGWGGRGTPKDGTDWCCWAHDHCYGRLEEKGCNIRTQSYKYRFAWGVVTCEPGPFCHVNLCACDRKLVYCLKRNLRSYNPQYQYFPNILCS

[2] = biological target: T2, GVIA iPLA2 (Homo sapiens, UniProt O60733); conditions: cited from earlier work
T2 sequence (O60733 1-806): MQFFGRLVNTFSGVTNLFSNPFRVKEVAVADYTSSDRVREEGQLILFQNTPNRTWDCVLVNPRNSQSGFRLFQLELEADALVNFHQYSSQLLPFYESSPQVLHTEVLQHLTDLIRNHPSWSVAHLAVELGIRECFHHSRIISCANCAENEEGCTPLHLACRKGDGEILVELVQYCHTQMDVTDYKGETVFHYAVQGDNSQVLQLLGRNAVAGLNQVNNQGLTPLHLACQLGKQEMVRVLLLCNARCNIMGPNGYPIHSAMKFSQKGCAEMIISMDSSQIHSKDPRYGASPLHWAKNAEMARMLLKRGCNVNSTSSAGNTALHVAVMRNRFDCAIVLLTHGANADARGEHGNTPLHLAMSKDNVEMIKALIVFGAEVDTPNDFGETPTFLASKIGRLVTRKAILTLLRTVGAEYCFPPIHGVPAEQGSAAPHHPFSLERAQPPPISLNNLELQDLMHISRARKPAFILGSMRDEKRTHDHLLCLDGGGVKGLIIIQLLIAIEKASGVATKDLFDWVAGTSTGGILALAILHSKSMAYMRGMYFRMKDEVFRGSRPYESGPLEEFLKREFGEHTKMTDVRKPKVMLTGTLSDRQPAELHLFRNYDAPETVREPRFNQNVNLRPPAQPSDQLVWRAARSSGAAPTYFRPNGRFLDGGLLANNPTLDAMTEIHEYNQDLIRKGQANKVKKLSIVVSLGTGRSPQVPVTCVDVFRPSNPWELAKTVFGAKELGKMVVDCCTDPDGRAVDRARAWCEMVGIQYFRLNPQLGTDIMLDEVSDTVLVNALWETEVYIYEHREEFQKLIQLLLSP

[3] = biological target: T3, GIVA cPLA2 (Homo sapiens, UniProt P47712); conditions: cited from earlier work
T3 sequence (P47712 1-749): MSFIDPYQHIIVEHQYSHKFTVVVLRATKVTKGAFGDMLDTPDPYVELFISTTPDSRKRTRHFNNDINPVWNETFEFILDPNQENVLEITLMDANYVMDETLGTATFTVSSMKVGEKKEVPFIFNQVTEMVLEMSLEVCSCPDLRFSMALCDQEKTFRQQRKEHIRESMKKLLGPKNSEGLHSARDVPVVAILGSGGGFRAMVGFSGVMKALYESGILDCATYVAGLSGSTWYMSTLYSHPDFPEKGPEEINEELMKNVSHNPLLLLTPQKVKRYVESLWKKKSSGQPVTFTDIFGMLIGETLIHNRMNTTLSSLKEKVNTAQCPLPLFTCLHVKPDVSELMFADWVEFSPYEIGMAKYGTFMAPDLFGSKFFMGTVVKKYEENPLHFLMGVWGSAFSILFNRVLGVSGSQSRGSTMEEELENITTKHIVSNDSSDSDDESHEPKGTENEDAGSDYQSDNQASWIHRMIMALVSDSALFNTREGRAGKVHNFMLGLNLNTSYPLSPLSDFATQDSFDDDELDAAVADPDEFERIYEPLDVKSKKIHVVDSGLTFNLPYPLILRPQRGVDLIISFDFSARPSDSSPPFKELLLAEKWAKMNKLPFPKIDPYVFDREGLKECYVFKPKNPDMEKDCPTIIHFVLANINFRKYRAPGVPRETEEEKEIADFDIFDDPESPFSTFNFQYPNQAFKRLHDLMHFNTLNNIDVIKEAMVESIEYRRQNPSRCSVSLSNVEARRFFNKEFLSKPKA

[4] = system: HAoSMCs; experiment: Relative mRNA expression of osteogenic markers MSX2, CBFA1, ALPL in HAoSMCs; assay type: cell-based, human; conditions: 10 µM arachidonic acid, 24 hours, vs. control
Description: Primary HAoSMCs were cultured in Waymouth's MB 752/1 medium and Ham's F-12 nutrient mixture (1:1, Gibco, Life Technologies) supplemented with 10% FBS (Gibco, Life Technologies) and 100 U/ml penicillin and 100 μg/ml streptomycin. HAoSMCs were grown to confluency and used in all experiments from passages 4 to 10. Calcification was induced with 3 mM sodium phosphate buffer as calcification medium. Treatment was performed over a period of 11 days. Figs. 1C-E are diagrams indicating relative mRNA expression in HAoSMCs of MSX2 (Fig. 1C), CBFA1 (Fig. 1D) and ALPL (Fig. 1E) as scatter dot plots and as arithmetic means ± SEM (n=6; arbitrary units, a.u.). mRNA expression was determined following treatment of the HAoSMCs for 24 hours with control or with 2 mM β-glycerophosphate (Pi) without or with additional treatment with 10 μM AACOCF3. **(p<0.01), ***(p<0.001) statistically significant vs. control treated […]<0.001) statistically significant vs. HAoSMCs treated with Pi alone. […] Conditions were as above (for Fig 2), namely primary HAoSMCs were cultured in Waymouth's MB 752/1 medium and Ham's F-12 nutrient mixture (1:1, Gibco, Life Technologies) supplemented with 10% FBS (Gibco, Life Technologies) and 100 U/ml penicillin and 100 μg/ml streptomycin. HAoSMCs were grown to confluency and used in all experiments from passages 4 to 10. […]

[5] = system: human platelets; conditions: read-out: IC50, arachidonic acid mobilization, cited from earlier work
[6] = system: Ca2+-independent group VI iPLA2; conditions: cited from earlier work

## CCCCCCCCCCCCCCC(=O)C(=O)O [12e]
[1]
  GV sPLA2 % Inhibition: <25%
[2]
  GVIA iPLA2 % Inhibition: <25%

## CC(C)(C)OC(=O)CCCOC(=O)C(=O)CCCCc1ccccc1 [16c]
[1]
  GV sPLA2 % Inhibition: <25%
[2]
  GVIA iPLA2 % Inhibition: <25%
[3]
  GIVA cPLA2 % Inhibition: <25%

## O=C(O)CCCOC(=O)C(=O)CCCCc1ccc(-c2ccccc2)cc1 [17d]
[1]
  GV sPLA2 % Inhibition: <25%
[2]
  GVIA iPLA2 % Inhibition: <25%
[3]
  GIVA cPLA2 % Inhibition: >95%
  GIVA cPLA2 X1(50): 0.00068 ± 0.00007

## O=C(O)CCCCOC(=O)C(=O)CCCCc1ccc(-c2ccccc2)cc1 [17f]
[1]
  GV sPLA2 % Inhibition: <25%
[3]
  GIVA cPLA2 % Inhibition: > 95%
  GIVA cPLA2 X1(50): 0.000078 ± 0.00001

## O=C(O)CCCOC(=O)C(=O)CCCc1ccc(-c2ccccc2)cc1 [17g]
[1]
  GV sPLA2 % Inhibition: <25%
[3]
  GIVA cPLA2 % Inhibition: > 95%
  GIVA cPLA2 X1(50): 0.0065 ± 0.002

## CCCCC/C=C\C/C=C\C/C=C\C/C=C\CCCC(=O)O [Arachidonic acid, arachidonic acid]
[4]
  osteoinductive signaling (MSX2, CBFA1, ALPL relative mRNA expression): induces osteoinductive signaling

## CCCCCCCCCCOc1ccc(OCC(=O)Cn2cc(C(=O)OC)c3cc(C(=O)O)ccc32)cc1 [CAY10502, 1-[3-(4-decoxyphenoxy)-2-oxopropyl]-3-methoxycarbonylindole-5-carboxylic acid]
[5]; A23187-stimulated human platelets
  IC50: 570 nM
[5]; TPA-stimulated human platelets
  IC50: 0.9 nM

## CCOC(=O)CCCOC(=O)C(=O)CCCCc1ccccc1 [compound 19]
[1]
  GV sPLA2 % Inhibition: <25%
[2]
  GVIA iPLA2 % Inhibition: <25%

## CCCCCCCCCCCCCCC(O)C(=O)OCCCC(=O)O (centres unmarked) [compound 20]
[2]
  GVIA iPLA2 % Inhibition: <25%
[3]
  GIVA cPLA2 % Inhibition: <25%

## Palmityl trifluoromethylketone [PACOCF3]
[6]
  IC50: 3800 nM
